Legend:
[1] = DRUGMATRIX: ATPase, Na+/K+ enzyme inhibition (substrate: ATP); type: tissue-based, Sus scrofa, Heart; details: Not Active = under 50% inhibition at 10 µM
Thromboxane-A synthase = biological target: T1, Thromboxane-A synthase (Homo sapiens, UniProt P24557); experiment: biochemical; type: tissue-based, Platelet; details: platelet;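 further: enzyme inhibition assay with PGH2 supplied as substrate; in other assays of this panel Not Active means under 50% inhibition at 10 µM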
T1 sequence (P24557 whole entry): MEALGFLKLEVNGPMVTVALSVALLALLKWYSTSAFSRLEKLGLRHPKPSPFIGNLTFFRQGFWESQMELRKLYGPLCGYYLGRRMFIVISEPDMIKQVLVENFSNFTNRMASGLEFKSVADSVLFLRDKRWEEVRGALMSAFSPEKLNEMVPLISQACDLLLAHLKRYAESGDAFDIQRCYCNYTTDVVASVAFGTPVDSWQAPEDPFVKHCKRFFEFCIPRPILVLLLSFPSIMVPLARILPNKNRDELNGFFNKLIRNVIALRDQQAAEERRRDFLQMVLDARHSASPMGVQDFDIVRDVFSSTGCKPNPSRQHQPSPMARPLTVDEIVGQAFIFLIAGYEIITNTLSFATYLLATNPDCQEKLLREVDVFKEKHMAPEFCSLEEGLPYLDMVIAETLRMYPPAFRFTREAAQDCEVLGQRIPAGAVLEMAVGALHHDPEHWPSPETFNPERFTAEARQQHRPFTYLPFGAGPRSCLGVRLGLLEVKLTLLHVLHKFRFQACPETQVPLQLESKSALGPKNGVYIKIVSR

[2] = biological target: Matrix metalloproteinase-9 (Homo sapiens, UniProt P14780); type: cell-based;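 further: inhibition of isolated MMP-9 enzyme activity toward a synthetic peptide substrate, from the DrugMatrix protease screening panel; in other assays of this panel Not Active means under 50% inhibition at 10 µM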
Chain of Matrix metalloproteinase-9 (P14780 whole entry): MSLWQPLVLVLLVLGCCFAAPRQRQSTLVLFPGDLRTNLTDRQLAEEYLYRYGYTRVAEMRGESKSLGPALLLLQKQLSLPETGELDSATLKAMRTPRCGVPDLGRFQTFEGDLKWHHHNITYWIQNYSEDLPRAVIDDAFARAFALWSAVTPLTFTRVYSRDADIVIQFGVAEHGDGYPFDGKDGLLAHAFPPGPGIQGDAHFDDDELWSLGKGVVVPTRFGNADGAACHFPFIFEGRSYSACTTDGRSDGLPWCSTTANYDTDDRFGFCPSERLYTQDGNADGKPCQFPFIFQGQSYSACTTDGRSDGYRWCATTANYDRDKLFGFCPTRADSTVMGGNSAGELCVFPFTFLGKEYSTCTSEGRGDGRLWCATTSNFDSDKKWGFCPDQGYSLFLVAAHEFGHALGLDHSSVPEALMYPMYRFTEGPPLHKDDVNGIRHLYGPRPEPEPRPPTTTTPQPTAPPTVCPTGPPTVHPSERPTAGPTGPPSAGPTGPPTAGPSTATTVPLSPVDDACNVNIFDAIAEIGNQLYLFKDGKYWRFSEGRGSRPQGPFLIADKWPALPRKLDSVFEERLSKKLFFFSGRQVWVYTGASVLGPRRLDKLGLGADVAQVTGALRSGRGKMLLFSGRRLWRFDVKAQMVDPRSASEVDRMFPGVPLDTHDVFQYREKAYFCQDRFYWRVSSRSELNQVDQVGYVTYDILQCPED

Melanocortin receptor 5 = Melanocortin receptor 5 (Homo sapiens, UniProt P33032); type: cell membranes, HEK293, Membrane; details: hek293; further: in other assays of this panel Not Active means under 50% inhibition at 10 µM
Chain of Melanocortin receptor 5 (P33032 whole entry): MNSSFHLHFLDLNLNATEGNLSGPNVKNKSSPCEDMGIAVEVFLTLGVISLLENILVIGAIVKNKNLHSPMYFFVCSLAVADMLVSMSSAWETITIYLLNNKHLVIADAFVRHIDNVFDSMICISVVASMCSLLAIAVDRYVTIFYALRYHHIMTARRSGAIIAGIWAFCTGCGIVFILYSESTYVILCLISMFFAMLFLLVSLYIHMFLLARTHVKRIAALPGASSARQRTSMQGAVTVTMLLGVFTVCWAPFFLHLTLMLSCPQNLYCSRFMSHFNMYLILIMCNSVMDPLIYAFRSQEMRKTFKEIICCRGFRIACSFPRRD

[3] = DRUGMATRIX: Leukotriene, BLT (LTB4) radioligand binding (ligand: [3H]LTB4); type: cell membranes, Membrane; details: u-937; Not Active = under 50% inhibition at 10 µM
[4] = biological target: T2, C-C chemokine receptor type 4 (Homo sapiens, UniProt P51679); type: cell membranes, Membrane; details: chem-1; further: in other assays of this panel Not Active means under 50% inhibition at 10 µM
T2 sequence (P51679 whole entry): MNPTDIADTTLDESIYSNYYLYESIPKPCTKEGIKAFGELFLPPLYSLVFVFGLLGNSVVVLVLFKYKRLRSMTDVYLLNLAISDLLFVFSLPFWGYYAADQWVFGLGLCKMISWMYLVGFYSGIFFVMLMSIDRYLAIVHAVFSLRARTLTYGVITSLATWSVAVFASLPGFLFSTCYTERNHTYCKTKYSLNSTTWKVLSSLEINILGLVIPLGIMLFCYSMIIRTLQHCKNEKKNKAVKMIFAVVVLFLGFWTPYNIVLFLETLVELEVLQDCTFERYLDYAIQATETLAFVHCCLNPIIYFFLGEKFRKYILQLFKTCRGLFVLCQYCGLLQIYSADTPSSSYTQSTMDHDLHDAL

[5] = DRUGMATRIX: Glutamate, AMPA radioligand binding (ligand: [3H] AMPA); type: cell membranes, Rattus norvegicus, Wistar, Cerebral cortex, Membrane; details: Not Active = under 50% inhibition at 10 µM

In the case of CC[C@]1(O)C[C@@H]2CN(CCc3c([nH]c4ccccc34)[C@@](C(=O)OC)(c3cc4c(cc3OC)N(C)[C@H]3[C@@](O)(C(N)=O)[C@H](O)[C@]5(CC)C=CCN6CC[C@]43[C@@H]65)C2)C1 [VINDESINE], the IC50 [1] is reported as “Not Active”, the Ki [1] is reported as “Not Active” and the IC50 (Thromboxane-A synthase) is reported as “Not Active”. For the same molecule, the IC50 [2] was “Not Active”, the IC50 (Melanocortin receptor 5) was “Not Active” and the IC50 [3] was “Not Active”. The Ki [3] was “Not Active”, the IC50 [4] was “Not Active” and the IC50 [5] was “Not Active”. For the same molecule, the Ki [5] was “Not Active”.

For CCN(C(C)=O)c1cccc(-c2ccnc3c(C#N)cnn23)c1 [ZALEPLON], the IC50 [1] was “Not Active”, the Ki [1] was “Not Active” and the IC50 (Thromboxane-A synthase) was “Not Active”. The IC50 [2] was “Not Active”, the IC50 (Melanocortin receptor 5) was “Not Active” and the IC50 [3] was “Not Active”. The Ki [3] was “Not Active”, the IC50 [4] was “Not Active” and the IC50 [5] was “Not Active”. For the same molecule, the Ki [5] was “Not Active”.

For COBALTOUS CHLORIDE, the IC50 [1] was “Not Active”, the Ki [1] was “Not Active” and the IC50 (Thromboxane-A synthase) was “Not Active”. For the same molecule, the Ki (Thromboxane-A synthase) was “Not Active”, the IC50 [2] was “Not Active” and the Ki [2] was “Not Active”. The IC50 (Melanocortin receptor 5) was “Not Active”, the Ki (Melanocortin receptor 5) was “Not Active” and the IC50 [3] was “Not Active”. For the same molecule, the Ki [3] was “Not Active”, the IC50 [4] was “Not Active” and the Ki [4] was “Not Active”. For the same molecule, the IC50 [5] was “Not Active” and the Ki [5] was “Not Active”.

For COLISTIN, the IC50 [1] was “Not Active”, the Ki [1] was “Not Active” and the IC50 (Thromboxane-A synthase) was “Not Active”. For the same molecule, the Ki (Thromboxane-A synthase) was “Not Active”, the IC50 [2] was “Not Active” and the Ki [2] was “Not Active”. The IC50 (Melanocortin receptor 5; read-out: IC50) was 266 nM, the Ki (Melanocortin receptor 5; read-out: Ki) was 249 nM and the IC50 [3] was “Not Active”. For the same molecule, the Ki [3] was “Not Active”, the IC50 [4] was “Not Active” and the Ki [4] was “Not Active”. For the same molecule, the IC50 [5] was “Not Active” and the Ki [5] was “Not Active”.

From ChEMBL document CHEMBL1909046, “DrugMatrix in vitro pharmacology data”
